Reference: patent US7465722B2, “Biphenyl vasopressin agonists” (Wyeth, priority 2001, dated 2008)

Columns and labels:
Vasopressin V2 = biological target: T1, Vasopressin V2 (Rattus norvegicus, UniProt Q00788); test: Vasopressin V2 agonist effects of test compounds in normal conscious water-loaded rats; type: in vivo; details: oral dose of 10 mg/Kg, urine collected for four hours, Sprague-Dawley (CD) rats; for Urine Volume (% decrease): percent decrease in urine volume vs control; for Urinary Osmolality (% increase): percent increase in osmolality vs control
T1 construct: Vasopressin V2 Agonist Effects of Test Compounds in Normal Conscious Water-Loaded Rats; from tissue; host or cells: whole animal: conscious Sprague-Dawley rats (kidney collecting ducts in vivo)
Description: Vasopressin V2 Agonist Effects of Test Compounds in Normal Conscious Water-Loaded Rats
Male or female normotensive Sprague-Dawley rats (Charles River Laboratories, Inc., Kingston, N.Y.) of 350-500 g body weight were supplied with standard rodent diet (Purina Rodent Lab. Chow 5001) and water ad libitum. On the day of test, rats were placed individually into metabolic cages equipped with devices to separate the feces from the urine and containers for collection of urine. A test compound or a reference agent was given at an oral dose of 10 mg/Kg in a volume of 10 mL/Kg. The vehicle used was 2.5% preboiled corn starch in 20% dimethylsulfoxide (DMSO). Thirty minutes after dosing the test compound, rats were gavaged with water at 30 mL/Kg into the stomach using a feeding needle. During the test, rats were not provided with water or food. Urine was collected for four hours after dosing of the test compound. At the end of four hours, urine volume was measured. Urinary osmolality was determined using a Fiske One-Ten Osmometer (Fiske Associates, Norwood, Mass., 02062) or an Advanced CRYOMATIC Osmometer, Model 3C2 (Advanced Instruments, Norwood, Mass.). Determinations of Na^+, K^+ and Cl^− ion were carried out using ion specific electrodes in a Beckman SYNCHRON ELISE Electrolyte System analyzer. The urinary osmolality should increase proportionally. In the screening test, two rats were used for each compound. If the difference in the urine volume of the two rats was greater than 50%, a third rat was used.

T1 sequence (Q00788 whole entry): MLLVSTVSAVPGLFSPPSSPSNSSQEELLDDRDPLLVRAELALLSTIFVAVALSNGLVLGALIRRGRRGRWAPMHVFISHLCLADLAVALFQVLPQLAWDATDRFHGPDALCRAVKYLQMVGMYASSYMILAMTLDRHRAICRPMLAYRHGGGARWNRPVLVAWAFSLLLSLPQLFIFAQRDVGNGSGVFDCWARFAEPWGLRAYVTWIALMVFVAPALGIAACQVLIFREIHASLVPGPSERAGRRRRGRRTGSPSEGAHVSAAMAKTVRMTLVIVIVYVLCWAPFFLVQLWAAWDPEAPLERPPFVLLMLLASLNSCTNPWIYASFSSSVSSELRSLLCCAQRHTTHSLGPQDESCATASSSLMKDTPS

Row | Urine Volume (% decrease) (Vasopressin V2) [%] | Urinary Osmolality (% increase) (Vasopressin V2) [%] | melting point [°C] | SMILES
1 | 67 | 163 | 145 to 147 | COc1ccccc1-c1ccc(C(=O)N2Cc3cccn3Cc3ccccc32)cc1 [Example 1, (2′-Methoxy-[1,1′-biphenyl]-4-yl)-(5H,11H-pyrrolo[2,1-c][1,4]benzodiazepin-10-yl)-methanone]
2 | 27 | 33 | 128 to 130 | Cc1cccc(-c2ccc(C(=O)N3Cc4cccn4Cc4ccccc43)cc2)c1 [Example 2, (10,11-Dihydro-5H-pyrrolo[2,1-c][1,4]benzodiazepin-10-yl)-(3′-methyl-[1,1′-biphenyl]-4-yl)-methanone]
3 | 18 | 78 | 187 to 189 | COc1ccc(-c2ccc(C(=O)N3Cc4cccn4Cc4ccccc43)cc2)cc1 [Example 3, (10,11-Dihydro-5H-pyrrolo[2,1-c][1,4]benzodiazepin-10-yl)-(4′-methoxy[1,1′-biphenyl]-4-yl)-methanone]
4 | 56 | 151 | 175 to 177 | O=C(c1ccc(-c2ccccc2)cc1)N1Cc2cccnc2Nc2ccccc21 [Example 4, [1,1′-Biphenyl]-4-yl-(5,11-dihydro-benzo[b]pyrido[2,3-e][1,4]diazepin-6-yl)-methanone]
5 | 22 | 26 | 220 to 223 | CN1c2ccccc2N(C(=O)c2ccc(-c3ccccc3)cc2)Cc2cccnc21 [Example 5, [1,1′-Biphenyl]-4-yl-(11-methyl-5,11-dihydro-benzo[b]pyrido[2,3-e][1,4]diazepin-6-yl)-methanone]
6 | 87 | 247 | 180 to 182 | O=C(c1ccc(-c2ccccc2)cc1)N1Cc2ccccc2Nc2ccccc21 [Example 6, [1,1′-Biphenyl]-4-yl-(5,11-dihydro-10H-dibenzo[b,e][1,4]diazepin-10-yl)methanone]
7 | 70 | 189 | 198 to 201 | CN1c2ccccc2CN(C(=O)c2ccc(-c3ccccc3)cc2)c2ccccc21 [Example 7, [1,1′-Biphenyl]-4-yl-(5-methyl-5,11-dihydro-10H-dibenzo[b,e][1,4]diazepin-10-yl)methanone]
8 | 35 | 73 | 164 to 166 | O=C(c1ccc(-c2ccccc2)cc1)N1CCCCc2sccc21 [Example 8, [1,1′-Biphenyl]-4-yl-(5,6,7,8-tetrahydro-thieno[3,2-b]azepin-4-yl)-methanone]
9 | 62 | 156 | 171 to 174 | O=C(c1ccc(-c2ccccc2)nc1)N1Cc2cccn2Cc2ccccc21 [Example 9, (5H,11H-Benzo[e]pyrrolo[1,2-a][1,4]diazepin-10-yl)-(6-phenyl-pyridin-3-yl)-methanone]
10 | 60 | 234 | – | COc1ccc(-c2ccc(C(=O)N3Cc4cccn4Cc4ccccc43)c(C)c2)cc1 [Example 10, (5H,11H-Benzo[e]pyrrolo[1,2-a][1,4]diazepin-10-yl)-(4′-methoxy-3-methyl-[1,1′-biphenyl]-4-yl)-methanone]
